# Reference: PubChem BioAssay AID743424 (The Scripps Research Institute Molecular Screening Center, 2014)
# Activity calls are given as the source filed them. How the calls were made is not given here.
# Molecular target: Sphingosine 1-phosphate receptor 3 (Homo sapiens) (UniProt Q99500)
# Assay: S1P3 receptor agonist activity, late-stage follow-up, counter-screen for S1PR3 antagonist project, cell-based, fluorescence, dose response (AID 743424)
# Settings: S1P3-expressing cells, agonist-mode fluorescence counterscreen
# Sphingosine 1-phosphate receptor 3 (Homo sapiens), sequence (Q99500 whole entry, looked up): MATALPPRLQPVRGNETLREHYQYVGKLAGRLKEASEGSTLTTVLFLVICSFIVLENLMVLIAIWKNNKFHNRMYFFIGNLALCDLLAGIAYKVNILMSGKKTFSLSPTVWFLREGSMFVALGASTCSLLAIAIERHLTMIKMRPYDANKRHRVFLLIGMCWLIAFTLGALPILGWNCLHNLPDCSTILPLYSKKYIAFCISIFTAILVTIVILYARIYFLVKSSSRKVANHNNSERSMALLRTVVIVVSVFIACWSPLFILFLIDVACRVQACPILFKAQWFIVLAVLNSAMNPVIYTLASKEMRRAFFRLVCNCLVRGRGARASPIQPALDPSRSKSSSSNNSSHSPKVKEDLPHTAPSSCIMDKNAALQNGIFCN
row,Structure (SMILES),EC50
1,O=C(NC(c1nc(-c2ccccc2)no1)C1CCOCC1)c1ccc(Cl)c(Cl)c1 (configuration not stated),> 50 µM (inactive)
2,O=C(NC(c1ccccc1)c1nc(-c2ccccc2)no1)c1cccc(Br)c1 (configuration not stated),> 50 µM (inactive)
3,CCc1ccc(C(NC(=O)c2cccc(Cl)c2)c2nc(-c3ccccc3)no2)cc1 (configuration not stated),> 50 µM (inactive)
4,O=C(NC(c1ccc(Cl)c(Cl)c1)c1nc(-c2ccccc2)no1)c1ccccc1 (configuration not stated),> 50 µM (inactive)
5,O=C(NC(c1ccc(Cl)cc1)c1nc(-c2ccccc2)no1)c1ccc(Cl)c(Cl)c1 (configuration not stated),> 50 µM (inactive)
6,O=C(NC(c1cccc(Cl)c1)c1nc(-c2ccccc2)no1)c1cccc(Cl)c1 (configuration not stated),> 50 µM (inactive)
7,O=C(NC(c1ccc(Cl)cc1)c1nc(-c2ccccc2)no1)c1cccc(Cl)c1 (configuration not stated),> 50 µM (inactive)
8,O=C(NC(c1ccc(Cl)cc1)c1nc(-c2ccccc2)no1)c1cccc(Br)c1 (configuration not stated),> 50 µM (inactive)
9,O=C(NC(Cc1ccccc1)c1nc(-c2ccccc2)no1)c1cccc(Cl)c1 (configuration not stated),> 50 µM (inactive)
10,O=C(NC(c1ccc(Br)cc1)c1nc(-c2ccccc2)no1)c1ccc(Cl)c(Cl)c1 (configuration not stated),> 50 µM (inactive)
11,O=C(NC(c1ccccc1)c1nc(-c2ccccc2)no1)c1cccc(Cl)n1 (configuration not stated),inactive
12,O=C(c1cccc(Cl)c1)N(CCO)C(c1ccc(Cl)c(Cl)c1)c1nc(-c2ccccc2)no1 (configuration not stated),> 50 µM (inactive)
13,O=C(NC(c1ccc(Cl)c(Cl)c1)c1nc(-c2ccccc2)no1)c1ccc(Cl)cc1 (configuration not stated),> 50 µM (inactive)
14,O=C(NC(c1ccc(Cl)c(Cl)c1)c1nc(-c2ccccc2)no1)c1cccc(Cl)c1 (configuration not stated),> 50 µM (inactive)
15,O=C(NC(c1ccc(Cl)cc1)c1nc(-c2cccc(Cl)c2)no1)c1cccc(Cl)c1 (configuration not stated),> 50 µM (inactive)
16,O=C(NC(c1ccc(Cl)c(Cl)c1)c1nc(-c2ccccc2)no1)c1ccc(Cl)c(Cl)c1 (configuration not stated),> 50 µM (inactive)
17,Cc1ccc(C(NC(=O)c2cccc(Cl)c2)c2nc(-c3ccccc3)no2)cc1 (configuration not stated),> 50 µM (inactive)
18,O=C(NC(c1ccccc1)c1nc(-c2ccccc2)no1)c1cccc(Cl)c1 (configuration not stated),> 50 µM (inactive)
19,O=C(NC(c1cccc(Cl)c1)c1nc(-c2ccccc2)no1)c1cc(Cl)cc(Cl)c1 (configuration not stated),> 50 µM (inactive)
20,COc1ccc(C(=O)NC(c2ccccc2)c2nc(-c3ccccc3)no2)cc1 (configuration not stated),> 50 µM (inactive)
21,O=C(NC(c1nc(-c2ccccc2)no1)C1CCCCC1)c1ccc(Cl)c(Cl)c1 (configuration not stated),> 50 µM (inactive)
22,O=C(NC(c1ccccc1)c1nc(-c2ccccc2)no1)c1ccc(Cl)cc1 (configuration not stated),> 50 µM (inactive)
23,O=C(NC(c1cccc(Cl)c1)c1nc(-c2ccccc2)no1)c1ccc(Cl)c(Cl)c1 (configuration not stated),> 50 µM (inactive)
24,O=C(NC(c1ccc(Cl)cc1)c1nc(-c2ccccc2)no1)c1ccc(Cl)c(Br)c1 (configuration not stated),> 50 µM (inactive)
25,N#Cc1ccc(C(=O)NC(c2ccc(Cl)c(Cl)c2)c2nc(-c3ccccc3)no2)cc1 (configuration not stated),> 50 µM (inactive)
26,Cc1ccc(C(=O)NC(c2ccccc2)c2nc(-c3ccccc3)no2)cc1 (configuration not stated),> 50 µM (inactive)
27,O=C(NC(c1ccc(Cl)cc1)c1nc(-c2ccccn2)no1)c1cccc(Cl)c1 (configuration not stated),> 50 µM (inactive)
